# Results published in PubChem BioAssay (NCI).
#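 GI50 = concentration required for 50% inhibition of growth. TGI marks complete inhibition of growth.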
# Experiments:
# Test in all cases: NCI-60 cell line screen, 384-well format
# [1] = system: EKVX NSCLC
# [2] = system: A549 NSCLC
# [3] = system: RPMI-8226 leukemia
# [4] = system: UACC-257 melanoma
# [5] = system: NCI/ADR-RES ovarian
# [6] = system: HOP-62 NSCLC
# [7] = system: SF-539 CNS
# [8] = system: SW-620 colon
# [9] = system: OVCAR-4 ovarian
# [10] = system: K-562 leukemia
# [11] = system: SNB-75 CNS
# [12] = system: OVCAR-8 ovarian
# [13] = system: SN12C renal
# [14] = system: NCI-H322M lung
# [15] = system: HT29 colon
# [16] = system: NCI-H226 lung
# [17] = system: NCI-H522 lung
# [18] = system: OVCAR-3 ovarian
# [19] = system: MDA-MB-231 breast
# [20] = system: SK-OV-3 ovarian
# [21] = system: LOX IMVI melanoma
# [22] = system: MDA-MB-468 breast
# [23] = system: HS 578T breast
# [24] = system: OVCAR-5 ovarian
# [25] = system: HCC-2998 colon
# [26] = system: T-47D breast
# [27] = system: HCT-116 colon
# [28] = system: DU-145 prostate
# [29] = system: COLO 205 colon
compound,measurement,setting,value
COc1c/c(=C2/C=c3ccccc3=N2)[nH]/c1=C/c1[nH]c(C)cc1C,GI50,[1],24.5 nM
same,TGI,[1],81.2 nM
same,GI50,[2],120 nM
same,TGI,[2],385 nM
same,GI50,[3],19.7 nM
same,TGI,[3],39.8 nM
same,GI50,[4],24.7 nM
same,TGI,[4],53.7 nM
same,GI50,[5],20.5 nM
same,TGI,[5],40.5 nM
same,GI50,[6],24.1 nM
same,TGI,[6],77.3 nM
same,GI50,[7],31.6 nM
same,TGI,[7],83.2 nM
same,GI50,[8],22.2 nM
same,TGI,[8],47.2 nM
same,GI50,[9],24.2 nM
same,TGI,[9],158 nM
same,GI50,[10],62.9 nM
same,TGI,[10],244 nM
same,GI50,[11],32.8 nM
same,TGI,[11],85.2 nM
same,GI50,[12],19.6 nM
same,TGI,[12],43.1 nM
same,GI50,[13],40.6 nM
same,TGI,[13],178 nM
same,GI50,[14],56.4 nM
same,TGI,[14],1140 nM
same,GI50,[15],21.9 nM
same,TGI,[15],54.8 nM
same,GI50,[16],15.3 nM
same,TGI,[16],32.3 nM
same,GI50,[17],33.5 nM
same,TGI,[17],220 nM
same,GI50,[18],14.3 nM
same,TGI,[18],34.6 nM
same,GI50,[19],19.3 nM
same,TGI,[19],52.7 nM
same,GI50,[20],52.3 nM
same,TGI,[20],293 nM
same,GI50,[21],17.7 nM
same,TGI,[21],32.4 nM
same,GI50,[22],197 nM
same,TGI,[22],587 nM
same,GI50,[23],26.3 nM
same,TGI,[23],77.9 nM
same,GI50,[24],33 nM
same,TGI,[24],1230 nM
same,GI50,[25],17.1 nM
same,TGI,[25],69 nM
same,GI50,[26],50.2 nM
same,TGI,[26],194 nM
same,GI50,[27],17.2 nM
same,TGI,[27],33.1 nM
same,GI50,[28],33.8 nM
same,TGI,[28],1060 nM
same,GI50,[29],24.6 nM
same,TGI,[29],68.9 nM
